According to US20060178307A1, “Modulation of NMDA receptor currents via orexin receptor and/or CRF receptor” (priority 2005, published 2006):
Entries after “also recorded” stand apart in the source; their conditions may differ. Where no end group is shown, it is not given here.

Key:
[1] = tested on: AMPAR mEPSCs; assay: AMPAR-mediated miniature EPSCs (mEPSCs) in VTA neurons; assay type: cell-based, rat; conditions: APV 50 μM 3 min prior and during orexin application
Description: Next, to investigate whether AMPAR function and/or number was modified with orexin A treatment, AMPAR-mediated miniature EPSCs (mEPSCs) were examined (a standard method for determining the locus of synaptic change). Compared to untreated neurons, orexin A (100 nM) caused a significant increase in both amplitude (FIG. 6C,D,F) and frequency (FIG. 6C,E,G) 3-4 hours after application (24±1.6 pA; 2.4±0.5 Hz; n=7 vs control: 13±1.3 pA; 0.93±0.16 Hz; n=7; FIG. 6A), but not at 15 min (15±1.7 pA; 0.9±0.1 Hz; n=[…], FIG. 6B).
AMPAR mEPSCs were recorded in cells voltage-clamped at −70 mV in lidocaine (500 μM), APV (50 μM) and sucrose (100 mM). NMDAR mEPSCs were recorded at −40 mV in Mg2+-free external solution with lidocaine (500 μM), glycine (20 μM), and CNQX (10 μM). mEPSCs were collected using Clampex (Axon Instruments) and analyzed using Mini Analysis Program (Synaptosoft). Detection criteria were set at >10 pA, <1 ms rise-time, and <3 ms decay-time for AMPAR mEPSCs and >10 pA, <1 ms rise-time, and <10 ms decay-time for NMDAR mEPSCs. mEPSC traces were recorded while sampling every 10 μs, the images were filtered at 5 kHz. Averaged mEPSCs were constructed using Mini Analysis Program (Synaptosoft).

[2] = tested on: NMDAR-mediated EPSCs in VTA dopamine neurons; assay: Evoked NMDAR-mediated EPSCs, whole-cell voltage clamp at +40 mV, VTA neurons in midbrain slices; assay type: cell-based, rat; conditions: for effect on potentiation of NMDAR-mediated EPSCs by orexin A: inhibitor 100 μM in patch pipette; for effect on potentiation of NMDAR-mediated EPSCs by 100 nM orexin A: inhibitor 1 μM in patch pipette
Description: Excitatory postsynaptic currents (EPSCs) were recorded from VTA neurons in rat midbrain slices. EPSCs were evoked while holding neurons in voltage clamp at +40 mV. Measurements were taken 20 ms after the stimulus artifact, a time point at which the glutamatergic EPSC is mediated purely by NMDARs.
The patch pipette was loaded with the PLC inhibitor, U-73122 (1 μM, FIG. 2A, C, n=6) or the PKC inhibitor, chelerythrin (1 μM, FIG. 1A, B, n=6). […] Next, the protein kinase A inhibitor, PKI (20 μM, FIG. 2A, F, n=8) or Rp-cAMPs, a blocker of cAMP (100 μM, FIG. 2A, E, n=5) was added to the patch pipette.
Activation of PKC is implicated in NMDAR-dependent long-term potentiation (Malinow et al., 1989) and it modulates NMDAR trafficking to the membrane (Lan et al., 2001; Scott et al., 2001; Fong et al., 2002). NMDARs can translocate from intracellular or extrasynaptic pools to synaptic sites (Lan et al., 2001; Tovar and Westbrook, 2002). […] In a separate group of slices, orexin A (100 nM, n=6) was applied for 5 min during the washout period.
All of the electrophysiological recordings were performed in rats ranging from P21 to P30. Briefly, rats were anesthetized with halothane and sacrificed. Horizontal sections of the VTA ([…]) were prepared with a vibratome (Leica, Nussloch, Germany). Slices were placed in a holding chamber and allowed to recover for at least 1 hour before being placed in the recording chamber and superfused with bicarbonate-buffered solution (ACSF) saturated with 95% O2/5% CO2 and containing (in mM): 119 NaCl, 1.6 KCl, 1.0 NaH2PO4, 1.3 MgCl2, 2.5 CaCl2, 26.2 NaHCO3 and 11 glucose (at 32-34° C.). Picrotoxin (100 μM) was added to block GABAA receptor-mediated inhibitory postsynaptic currents. Cells were visualized using infrared differential interference contrast video microscopy. Whole-cell voltage clamp recordings were made using an Axopatch 1D amplifier (Axon Instruments, Union City, Calif.). Electrodes (2.8-4.0 MΩ) contained (in mM): 120 Cesium Methansulfonate, 20 HEPES, 0.4 EGTA, 2.8 NaCl, 5 TEA-Cl, 2.5 MgATP, and 0.25 NaGTP, pH 7.2-7.3 (270-285 mOsm). Series resistance (10-40 MΩ) and input resistance were monitored on-line with a 4-mV depolarizing step (50 ms) given just after every afferent stimulus. Dopaminergic VTA neurons were identified by the presence of a large Ih current (Lacey et al., 1990; Johnson and North, 1992) and, in some cases, tyrosine hydroxylase labeling. A bipolar stimulating electrode was placed 100-300 μm rostral to the recording electrode and was used to stimulate excitatory afferents at 0.1 Hz. Neurons were voltage-clamped at −70 mV and +40 mV to record AMPAR- and NMDAR-mediated EPSCs.

[3] = tested on: locomotor activity; assay: Locomotor sensitization to cocaine, intra-VTA OXR1 antagonist, 7-day paradigm; assay type: in vivo, Sprague-Dawley rats; conditions: control animals: intra-VTA vehicle + cocaine 15 mg/kg
Description: Male Sprague-Dawley rats (250 grams) were implanted with bilateral cannulae directed at the VTA (AP, −5.2; ML, ±0.5, DV −8.0). Following recovery from surgery, animals were tested in a cocaine sensitization assay similar to that used for systemic administration of the OXR1 antagonist, but with two changes: a 7-day sensitization paradigm was used, and the OXR1 antagonist SB 334867 was microinjected directly into the VTA (6 μg/hemisphere in 300 nL solution composed of 10% DMSO in water). All other methods for habituation and data collection were identical to that described above. Rats were deeply anesthetized with pentobarbital, and perfused with a 10% formaldehyde solution. Brains were cryoprotected in 25% sucrose, 40 μm coronal sections were cut on a freezing microtome, and sections were mounted, dried and coverslipped. Injection sites were located under a light microscope and recorded on atlas figures adapted from Paxinos and Watson (1997).

[4] = tested on: AMPAR/NMDAR ratio of EPSCs in VTA dopamine cells; assay: AMPAR/NMDAR ratio in VTA slices 24 hr after 5-day in vivo treatment; parameters: species or system rat; conditions: cocaine 15 mg/kg, 5-day treatment, n=4
Description: The next study investigated whether orexin signaling in the VTA is required for the long-term plasticity associated with the development of behavioral sensitization. Long-term synaptic plasticity at excitatory synapses on VTA neurons was examined 24 hr after a 5-day treatment of cocaine (15 mg/kg) or saline (0.9%), a time course shown to induce long-lasting locomotor sensitization to cocaine (Thomas et al., 2001), with or without the OXR1 antagonist, SB 334867 (10 mg/kg, FIG. 5). To assay for synaptic plasticity, the relative contributions of AMPARs and NMDARs to EPSCs recorded in VTA dopamine cells were compared. Consistent with the potentiation observed following acute and 7-day cocaine treatments (Borgland et al., 2004), 5-day treatment with cocaine potentiated the AMPAR/NMDAR ratio compared to saline controls (FIG. 5A, saline: 0.4±0.07, n=4; cocaine: 0.8±0.1, n=4, p<0.05). This potentiation of synaptic plasticity was blocked by 5-day treatment with the OXR1 antagonist, SB 334867, administered 15 min prior to cocaine or saline (FIG. 5A, saline+SB334867: 0.4±0.02, n=5 vs. cocaine+SB334867: 0.5±0.08, n=11, p>0.05). Since OXR1 antagonists block cocaine-mediated potentiation of the AMPAR/NMDAR ratio, orexin A may either facilitate cocaine-mediated synaptic plasticity or enhance synaptic transmission itself. A 5-min orexin A application was performed to determine whether this caused changes in AMPAR/NMDAR ratio either 15 min or 3-4 hours after application (FIG. 5B).
To calculate the AMPAR/NMDAR ratio, an average of 12 EPSCs at +40 mV was computed before and after application of the NMDAR blocker, AP5 (50 μM) for 5 min. NMDAR responses were calculated by subtracting the average response in the presence of AP5 (AMPAR only) from that seen in its absence; the peak of the AMPAR EPSC was divided by the peak of the NMDAR EPSC to yield an AMPAR/NMDAR ratio.
Male Sprague-Dawley Rats (P21-P30; Charles River, N.C.) were singly housed with food and water available ad libitum. A 12 hr light/dark cycle was used, with the lights on at 7:00 A.M. All cocaine injections and behavioral testing were performed during the light cycle for consecutive days. The four treatment groups consisted of rats given 5 daily i.p. injections of SB 334867 (10 mg/kg) 15 min preceding i.p. injection of cocaine (15 mg/kg) or saline (0.9% NaCl), or i.p. injections of vehicle (10% DMSO and 25% β-hydroxy cyclodextrin in saline) 15 min preceding i.p. injection of cocaine or saline. […] Locomotor activity was measured in 17″×17″ chambers lined with three 16-beam I/R arrays. […] Distance traveled was measured using Open Field Activity Software (Med Associates, Inc) and analyzed for estimates of locomotion based on the movement of a given distance and resting delay (movement in a given period of time).

[5] = tested on: locomotor activity; assay: Locomotor sensitization to cocaine, i.p. OXR1 antagonist, open field; assay type: in vivo, Sprague-Dawley rats; conditions: n=13
Description: To determine if orexin signaling plays a role in behavioral sensitization to cocaine, either the OXR1 antagonist SB 334867 (10 mg/kg, i.p.) or vehicle was injected 15 min prior to injecting cocaine (15 mg/kg, i.p) or saline (0.9%), and then the rats were placed in an open field chamber to measure locomotor activity for 1 hour each day for 5 days.
Therefore, to determine if expression of cocaine sensitization requires release of orexin acting at the OXR1 receptor, the OXR1 antagonist SB 334867 (10 mg/kg) was injected with cocaine (15 mg/kg) on day 6 into either cocaine-sensitized or saline-treated rats.
Male Sprague-Dawley Rats (P21-P30; Charles River, N.C.) were singly housed with food and water available ad libitum. A 12 hr light/dark cycle was used, with the lights on at 7:00 A.M. All cocaine injections and behavioral testing were performed during the light cycle for consecutive days. The four treatment groups consisted of rats given 5 daily i.p. injections of SB 334867 (10 mg/kg) 15 min preceding i.p. injection of cocaine (15 mg/kg) or saline (0.9% NaCl), or i.p. injections of vehicle (10% DMSO and 25% β-hydroxy cyclodextrin in saline) 15 min preceding i.p. injection of cocaine or saline. All animals were habituated to the photocell boxes (Med Associates, St. Albans, Vt.) for 2 hours prior to the start of the experiment. All animals were further habituated to the photocell boxes for 30 min prior to 60 min testing session. Locomotor activity was measured in 17″×17″ chambers lined with three 16-beam I/R arrays. A 50 ms scanning rate was used for measurement of beams broken. Distance traveled was measured using Open Field Activity Software (Med Associates, Inc) and analyzed for estimates of locomotion based on the movement of a given distance and resting delay (movement in a given period of time).

[6] = tested on: NMDAR-mediated currents in VTA dopamine cells; assay: CRF-related peptides on NMDAR-mediated currents at excitatory synapses onto VTA dopamine cells; assay type: cell-based; conditions: mammalian brain

N[C@H](CCCP(=O)(O)O)C(=O)O [APV, D (−)-2-Amino-5-phosphonopentanoic acid]
effect on orexin A-induced increase in AMPAR mEPSC amplitude at 3-4 hours [1]: significantly reduced; also recorded: blocked

C[C@H](NC(c1cccc2[nH]c(=O)c(=O)[nH]c12)P(=O)(O)O)c1ccc(Br)cc1 (some centres unmarked) [NVP-AAM077]
remaining current ([2]; NVP-AAM077 0.4 μM applied during peak increase induced by 100 nM orexin A, n=6): 87±11% | effect on expression of orexin A-mediated potentiation of NMDAR EPSCs ([2]; NVP-AAM077 0.4 μM applied during peak of potentiation): blocked; also recorded: reversed | effect on ability of 100 nM orexin A to potentiate NMDAR EPSCs ([2]; NVP-AAM077 0.4 μM pre-applied): significantly reduced | inhibition of NMDAR EPSCs ([2]; bath application 0.4 μM, n=6): 54±7%

O=C(O)C1NCCN(C(=O)c2ccc3c(ccc4ccccc43)c2)C1C(=O)O (centres unmarked) [PPDA, 1-(phenantrene-2carbonyl) piperazine-2,3-dicarboxylic acid]
additional inhibition of NMDAR EPSCs ([2]; 1 μM on top of NVP-AAM077 and ifenprodil): 10% | effect on orexin A (100 nM)-mediated NMDAR potentiation ([2]; PPDA 1 μM after co-application of NVP-AAM077 and ifenprodil): blocked | remaining current ([2]; PPDA 1 μM with NVP-AAM077 and ifenprodil, n=6): 14±2.2%

Nc1ncnc2c1ncn2[C@@H]1O[C@@H]2CO[P@@](O)(=S)O[C@H]2[C@H]1O [Rp-cAMPs]
effect on potentiation of NMDAR-mediated EPSCs by orexin A ([2]; n=5): robust potentiation | effect on potentiation of NMDAR-mediated EPSCs by orexin A ([2]; n=5, listed as Rp-cAMPS): did not block

COc1ccc2c(c1)CC[C@@H]1[C@@H]2CC[C@]2(C)[C@@H](NCCCCCCN3C(=O)C=CC3=O)CC[C@@H]12 [U-73122]
effect on potentiation of NMDAR-mediated EPSCs by 100 nM orexin A ([2]; n=6): completely blocked | effect on potentiation of NMDAR-mediated EPSCs by 100 nM orexin A ([2]; n=6, listed as U73122): blocked

[Zn+2] [Zn^2+]
inhibition of NMDAR EPSCs ([2]; 100 nM, n=6): 13±8% | inhibition of NMDAR EPSCs ([2]; 300 nM, n=5): 29±9% | effect on orexin A-mediated potentiation of NMDARs ([2]; Zn2+ 300 nM): significantly reduced; also recorded: mostly blocked

COc1ccc2c(c[n+](C)c3c4cc5c(cc4ccc23)OCO5)c1OC [chelerythrin]
effect on potentiation of NMDAR-mediated EPSCs by 100 nM orexin A ([2]; n=6): completely blocked

COC(=O)[C@H]1[C@@H](OC(=O)c2ccccc2)C[C@@H]2CC[C@H]1N2C [cocaine]
mean locomotor distance on day 7 [3]: 34162±4477 cm | AMPAR/NMDAR ratio [4]: 0.8±0.1 | distance traveled on day 5 ([5]; cocaine-only-treated rats, 15 mg/kg i.p.): 20347±5643 cm | locomotor activity on day 1 ([5]; cocaine-treated rats given vehicle): 5692±1579 cm

CC(C(O)c1ccc(O)cc1)N1CCC(Cc2ccccc2)CC1 (centres unmarked) [ifenprodil]
remaining current after application ([2]; bath-applied 3 μM): 71±6% | effect on orexin A-mediated potentiation of NMDAR EPSCs ([2]; ifenprodil 3 μM bath-applied): no significant effect; also recorded: not affected

Urocortin II: peptide that does not bind CRF-BP (IVLSLDVPIGLLQILLEQARARAAREQATTNARILARVGHC; ends and bridges not checked; UniProt Q96RP3 72-112, looked up)
potentiation of NMDAR currents [6]: do not potentiate
